{"source": "patent US4812462A", "about": "“4,5,6,7-tetrahydro-1H-imidazo[4,5-c]pyridine-6-carboxylic acid analogs having antihypertensive activity” (Warner-Lambert Company, priority 1986, dated 1989)", "note": "Where a name gives a salt, the structure may show the parent alone."}
{"system": "2 kidney, 1-clip Goldblatt hypertensive rat (RHR)", "experiment": "blood pressure lowering in conscious 2 kidney, 1-clip Goldblatt (renal) hypertensive rats (RHR), AHP3", "format": "in vivo", "conditions": "30 mg/kg ip, read-out: Max % decrease in blood pressure, 30 mg/kg ip in RHR", "experimental": "(§1) Thus, for example, compounds of formula I when administered intraperitoneally or orally to 2 kidney, 1-clip Goldblatt (renal) hypertensive rats (See S Sen, et al., \"Role of Renin-Angiotensin System in Chronic Renal Hypertensive Rats,\" Hypertension 1:427-434 (1979) and Clin. Soc. 57:53-62, 1979, \"Antihypertensive Effect of Prolonged Blockade of Angiotensin Formation in Benign and Malignant, one-and two-kidney Goldblatt Hypertensive Rats\".) at doses in the range of 1-100 mg/kg cause 10-80 mmHg drops in blood pressure. […] Angiotensin binding inhibition activity and blood pressure lowering activity in renal hypertensive rats of the optimally substituted examples of formula I are listed in Table 1. Blood pressure lowering activity in spontaneously hypertensive rats of optimally substituted examples of formula II are listed in Table 2.\n(§2) […] EVALUATION (AHP3)\n(§3) A Method for the Direct Monitoring of Aortic Blood Pressure and Heart Rate from Conscious Rats\n(§4) The continuous monitoring of pulsatile blood pressure (BP) from unrestrained conscious rats surgically equipped with polyethylene cannulas was accomplished by means of a computer assisted data capture scheme (CADCS). The basic elements of the methodology are the cannulation procedure and the CADCS.\n(§5) Rats were anesthetized with Telazol (1:1 tiletamine HCl and zolazepam HCl); 20-40 mg/kg IM and the descending aorta exposed via a midline incision. Cannulas fabricated from polyethylene tubing were inserted into the aorta via an undersized puncture hole below the renal arteries. The puncture hole was made by a 23 G disposable needle with a section of the aorta clamped off above and below the puncture site. The cannulas, consisting of a PE100 (0.86 mm ID) body and a PE50 (0.58 mm ID) tip, were attached to a trocar, inserted through the psoas muscle, and passed subcutaneously along the midline of the back and externalized between the ears. The cannulas were anchored to the psoas muscle and between the scalulae (3-0 green braided suture). The midline incision was closed in two steps (muscle first, skin second) using continuous over-and-over sutures (4-0 chronic). Each rat was then given penicillin 30,000 units subcutaneously (Penicillin G Procaine Sterile Suspension).\n(§6) The rats were fitted with a harness-springswivel assembly designed to protect the cannula and to provide the rat relative freedom of movement. The harnesses were fabricated from nylon hook and loop tape cemented to a metal plate to which spring wires (18-8 stainless steel), were attached to brass swivels. Each polyethylene cannula was channeled through a spring and connected through a swivel to a pressure transducer (Model P23Gb; Statham Instruments; Hato Rey, Puerto Rico) and an infusion pump (Sage model 234-7; Orion Research, Cambridge, Mass.) by means of PE100 tubing. While on test, each rat received a continuous slow infusion of heparinized saline solution (approximately 0.40 ml or 40 units of heparin per 24 hr period) to prevent clot formation. Additional \"flushes\" of the cannula with heparinized saline were carried out when the aortic pulse pressure (systolic minus diastolic) was less than 25 mm Hg.\n(§7) The pulsatile blood pressure of each of 32 rats was monitored continuously by two signal conditioning units (Gould, Clev., Ohio). The signals from these units were monitored and digital data for mean, systolic, and diastolic blood pressures as well as for heart rate were calculated every 5 min by two in-laboratory computers (Hewlett Packard, Cupertino, Calif.). These in-laboratory computers have the capacity to store 32 days of this 5 min data. Communication with the mainframe research computer (IBM 3083) from the two inlaboratory computers allowed for data analysis and report generation. […]", "units": {"change in vivo at 30 mg/kg": "%"}}
{"smiles": "Cc1cc(Cn2cnc3c2CC(C(=O)O)N(C(=O)C(c2ccccc2)c2ccccc2)C3)ccc1N", "note": "(centres unmarked) [Example 13, 1-(4-Amino-3-methylphenyl)methyl-5-diphenylacetyl-4,5,6,7-tetrahydro-1H-imidazo[4,5-c]pyridine-6-carboxylic acid]", "change in vivo at 30 mg/kg": -22}
{"smiles": "COc1ccc(Cn2cnc3c2C[C@@H](C(=O)O)N(C(=O)C(c2ccc(C)cc2)c2ccc(C)cc2)C3)cc1C", "note": "[Example 25, (S)-[bis(4-methylphenyl)acetyl]-4,5,6,7-tetrahydro-1-[(4-methoxy-3-methylphenyl)methyl]-1H-imidazo[4,5-c]-pyridine-6-carboxylic acid]", "change in vivo at 30 mg/kg": -12}
{"system": "spontaneously hypertensive rat (SHR)", "experiment": "blood pressure lowering in conscious spontaneously hypertensive rats (SHR), AHP3", "format": "in vivo", "conditions": "30 mg/kg PO, read-out: Max % decrease in blood pressure, 30 mg/kg PO in SHR", "experimental": "as §1, §2, §3, §4, §5, §6, §7", "units": {"change in vivo at 30 mg/kg": "%"}}
{"smiles": "COc1ccc(N2C(=O)C3Cc4c(ncn4Cc4ccc(OC)c(C)c4)CN3C2=S)cc1", "note": "(centres unmarked) [Example 127, 6,7,8a,9-Tetrahydro-1-[(4-methoxy-3-methylphenyl)-methyl]-7-(4-methoxyphenyl)-6-thioxo-1H-diimidazo-[1,5-a:4',5'-d]-pyridine-8(4H)-one]", "change in vivo at 30 mg/kg": -24}
{"smiles": "COc1ccc(N2C(=O)C3Cc4c(ncn4Cc4ccccc4)CN3C2=S)cc1", "note": "(centres unmarked) [Example 128, 6,7,8a,9-Tetrahydro-7-(4-methoxyphenyl)-1-(phenylmethyl)-6-thioxo-1H-diimidazo[1,5-a:4',5'-d]pyridine-8(4H)-one]", "change in vivo at 30 mg/kg": -32}
{"smiles": "CC(C)N1C(=O)[C@@H]2Cc3ncn(C)c3CN2C1=O", "note": "[Example 129, (S)-8a,9-dihydro-3-methyl-7-(1-methylethyl)-3H-diimidazo-[1,5-a:4',5'-d]pyridine-6,8(4H,7H)-dione]", "change in vivo at 30 mg/kg": -36}
{"smiles": "CC(C)N1C(=O)C2Cc3c(ncn3Cc3ccccc3)CN2C1=O", "note": "(centres unmarked) [Example 130, 8a,9-Dihydro-7-(1-methylethyl)-1-(phenylmethyl)-1H-diimidazo[1,5-a:4',5'-d]pyridine-6,8(4H,7H)-dione hydrobromide]", "change in vivo at 30 mg/kg": -21}
{"smiles": "COc1ccc(N2C(=O)C3Cc4c(ncn4Cc4ccccc4)CN3C2=O)cc1", "note": "(centres unmarked) [Example 133, 1H-Diimidazo[1,5-a:4',5'-d]pyridine-6,8(4H,7H)-dione, 8a,9-dihydro-7-(4-methoxyphenyl)-1-(phenylmethyl)-, monohydrochloride]", "change in vivo at 30 mg/kg": -29}
{"smiles": "CC(C)N1C(=O)C2Cc3nc[nH]c3CN2C1=O", "note": "(centres unmarked) [Example 154, 8a,9-Dihydro-7-(1-methylethyl)-3H-diimidazo[1,5-a:4',5'-d]-pyridine-6,8(4H,7H)-dione]", "change in vivo at 30 mg/kg": -39}
{"smiles": "COc1ccc(N2C(=O)C3Cc4[nH]cnc4CN3C2=O)cc1", "note": "(centres unmarked) [Example 155, 8a,9-Dihydro-7-(4-methoxyphenyl)-1H-diimidazo[1,5-a:4',5'-d]pyridine-6,8(4H,7H)-dione]", "change in vivo at 30 mg/kg": -39}
{"smiles": "CC(C)(C)N1C(=O)C2Cc3[nH]cnc3CN2C1=O", "note": "(centres unmarked) [Example 156, 7-(1,1-Dimethylethyl)-8a,9-dihydro-1H-diimidazo[1,5-a:4',5'-d]pyridine-6,8(4H,7H)-dione]", "change in vivo at 30 mg/kg": -18}
{"smiles": "COc1ccc(N2C(=O)C3Cc4[nH]cnc4CN3C2=O)c(OC)c1", "note": "(centres unmarked) [Example 157, 7-(2,4-Dimethoxyphenyl)-8a,9-dihydro-1H-diimidazo[1,5-a:4',5'-d]pyridine-6,8(4H,7H)-dione]", "change in vivo at 30 mg/kg": -22}
{"smiles": "COc1ccc(N2C(=O)C3Cc4[nH]cnc4CN3C2=S)cc1", "note": "(centres unmarked) [Example 159, 1,4,6,7,8a,9-Hexahydro-7-(4-methoxyphenyl)-6-thioxo-8H-diimidazo[1,5-a:4',5'-d]pyridine-8-one]", "change in vivo at 30 mg/kg": -39}
{"smiles": "CN(C)c1ccc(N2C(=O)C3Cc4[nH]cnc4CN3C2=S)cc1", "note": "(centres unmarked) [Example 160, 7-[4-(Dimethylamino)phenyl]-1,4,6,7,8a,9-hexahydro-6-thioxo-8H-diimidazo[1,5-a:4',5'-d]pyridine-8-one]", "change in vivo at 30 mg/kg": -34}
{"smiles": "O=C1C2Cc3[nH]cnc3CN2C(=S)N1c1ccccc1", "note": "(centres unmarked) [Example 161, 1,4,6,7,8a,9-Hexahydro-7-phenyl-6-thioxo-8H-diimidazo[1,5-a:4',5'-d]pyridine-8-one]", "change in vivo at 30 mg/kg": -28}
